In patent US10940139B2, “Compounds that interact with the Ras superfamily for the treatment of cancers, inflammatory diseases, rasopathies, and fibrotic disease” (Shy Therapeutics LLC, priority 2017, dated 2021):

Legend:
Test in all cases: Ras GTP binding domain inhibition assay (labeled GTP)
KRas G12D mutant protein = KRas G12D mutant protein (Homo sapiens (Human), UniProt P01116, G12D); details: 20 μM compound; KRas G12D; read-out: % Inhibition at 20 μM of K-Ras mutant and wild-type protein, KRas G12D
KRas G12D mutant protein, sequence (P01116-2 other isoform, or with tags, fused parts or gaps G12D): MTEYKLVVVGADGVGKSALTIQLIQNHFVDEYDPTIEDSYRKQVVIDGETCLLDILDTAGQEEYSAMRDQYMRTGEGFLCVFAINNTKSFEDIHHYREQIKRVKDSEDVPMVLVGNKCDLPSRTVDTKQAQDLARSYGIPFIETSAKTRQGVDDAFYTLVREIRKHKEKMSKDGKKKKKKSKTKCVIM

KRas G12C mutant = KRas G12C mutant (Homo sapiens (Human), UniProt P01116, G12C); details: 20 μM compound; KRas G12C; read-out: % Inhibition at 20 μM of K-Ras mutant and wild-type protein, KRas G12C
KRas G12C mutant, sequence (P01116-2 other isoform, or with tags, fused parts or gaps G12C): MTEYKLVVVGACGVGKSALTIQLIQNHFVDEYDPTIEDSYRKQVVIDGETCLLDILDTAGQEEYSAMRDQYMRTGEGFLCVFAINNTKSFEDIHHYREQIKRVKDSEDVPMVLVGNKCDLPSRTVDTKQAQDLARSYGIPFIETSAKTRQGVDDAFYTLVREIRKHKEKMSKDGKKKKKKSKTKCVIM
Method in brief: (§1)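 Labelled-GTP binding: plate-captured His-KRas protein was pre-exposed to compound for 3 h at room temperature (single 20 μM point or dilution series, 1% DMSO, Tris pH 7.5/MgCl2/DTT buffer). Cy3- or Cy5-GTP was then added for 45 min. Washed wells were read for retained fluorescence to give inhibition or IC50.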

KRas wild type = KRas wild type (Homo sapiens (Human), UniProt P01116); details: 20 μM compound; KRas wild type; read-out: % Inhibition at 20 μM of K-Ras mutant and wild-type protein, KRas wild type
KRas wild type, sequence (P01116-2 other isoform, or with tags, fused parts or gaps): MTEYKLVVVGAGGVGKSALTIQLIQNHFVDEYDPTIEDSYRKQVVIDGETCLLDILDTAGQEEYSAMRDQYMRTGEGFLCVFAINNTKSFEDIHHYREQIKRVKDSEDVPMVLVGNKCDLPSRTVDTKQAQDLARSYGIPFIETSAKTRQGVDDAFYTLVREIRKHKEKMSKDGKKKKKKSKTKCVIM
Method in brief: as §1

Row | inhibition at 20 µM (KRas G12D mutant protein) [%] | inhibition at 20 µM (KRas G12C mutant) [%] | inhibition at 20 µM (KRas wild type) [%] | Compound
1 | 51 to 75 | 25 to 50 | 25 to 50 | Cn1ccnc1-c1nc(O)c2scc(-c3ccccc3)c2n1 [drawing 3614]
2 | 51 to 75 | 51 to 75 | 51 to 75 | COCCNc1nc(-c2nccn2C)nc2sc(C)c(-c3ccccc3)c12 [drawing 3584]
3 | 0 | 0 | 1 to 25 | Cn1ccnc1-c1nc(O)c2sc(-c3ccccc3)c(-c3ccccc3)c2n1 [drawing 3588]
4 | 25 to 50 | 0 | 25 to 50 | COC(C)(C)c1ccc(-c2csc3c(O)nc(-c4nccn4C)nc23)cc1 [drawing 3618]
5 | 25 to 50 | 1 to 25 | 25 to 50 | CC(C)Oc1ccc(-c2c(-c3ccccc3)sc3c(O)nc(-c4nccn4C)nc23)cc1F [drawing 3611]
6 | 51 to 75 | 51 to 75 | 25 to 50 | Cn1ccnc1-c1nc(O)c2sc(-c3ccccc3)c(-c3ccccc3Cl)c2n1 [drawing 3595]
7 | 25 to 50 | 1 to 25 | 25 to 50 | Cc1ccccc1-c1c(C)sc2c(O)nc(-c3nccn3C)nc12
8 | 1 to 25 | 1 to 25 | 1 to 25 | COc1ccc(-c2c(C)sc3c(O)nc(-c4nccn4C)nc23)cn1 [drawing 3601]
9 | 51 to 75 | 25 to 50 | 51 to 75 | CC(C)COc1ccc(-c2c(-c3ccccc3)sc3c(O)nc(-c4nccn4C)nc23)cn1 [drawing 3587]
10 | 51 to 75 | 25 to 50 | 25 to 50 | COc1ccc(-c2csc3c(O)nc(-c4nccn4C)nc23)cn1 [drawing 3613]
11 | 1 to 25 | 25 to 50 | 25 to 50 | CC(C)COc1ccc(-c2csc3c(O)nc(-c4cn(C)cn4)nc23)cn1 [drawing 3605]
12 | 1 to 25 | 1 to 25 | 1 to 25 | Cc1sc2c(O)nc(-c3nccn3C)nc2c1-c1cccc(C(F)(F)F)c1 [drawing 3599]
13 | 25 to 50 | 25 to 50 | 25 to 50 | Cc1sc2c(O)nc(-c3nccn3C)nc2c1-c1ccccc1 [drawing 3594]
14 | 1 to 25 | 1 to 25 | 1 to 25 | Cc1sc2c(O)nc(-c3nccn3C)nc2c1-c1ccc(OCC(C)C)nc1 [drawing 3600]
15 | 25 to 50 | 1 to 25 | 1 to 25 | Cn1ccnc1-c1nc(O)c2scc(-c3ccc(F)cc3F)c2n1 [drawing 3616]
16 | 25 to 50 | 25 to 50 | 25 to 50 | CC(C)Oc1ccc(-c2csc3c(O)nc(-c4nccn4C)nc23)cc1F [drawing 3609]

The next lines start with the molecule.

Row | Compound | inhibition at 20 µM (KRas G12D mutant protein) [%] | inhibition at 20 µM (KRas G12C mutant) [%] | inhibition at 20 µM (KRas wild type) [%]
17 | COCCNc1nc(-c2nccn2C)nc2sc(-c3ccccc3)c(-c3ccccn3)c12 [drawing 3622] | 25 to 50 | 25 to 50 | 51 to 75
18 | COCCNc1nc(-c2ccncn2)nc2sc(-c3ccccc3)c(-c3ccccc3)c12 [drawing 3574] | 0 | 1 to 25 | 1 to 25
19 | Oc1nc(-c2ccncn2)nc2c(-c3cccc(C(F)(F)F)c3)csc12 [drawing 3607] | 1 to 25 | 25 to 50 | 25 to 50
20 | CC(CO)Nc1nc(-c2nccn2C)nc2sc(-c3ccccc3)c(-c3ccccc3)c12 (stereo not drawn) [drawing 3578] | 1 to 25 | 25 to 50 | 0
21 | COCCNc1nc(-c2nccn2C)nc2sc(-c3ccc(OC)cc3)c(-c3ccccc3)c12 [drawing 3597] | 25 to 50 | 1 to 25 | 1 to 25
22 | COCCNc1nc(-c2nccn2C)nc2sc(-c3ccccc3)c(-c3ccccc3Cl)c12 [drawing 3580] | 25 to 50 | 25 to 50 | 1 to 25
23 | COCCNc1nc(-c2nccn2C)nc2sc(-c3ccccc3)c(-c3ccncc3)c12 [drawing 3596] | 51 to 75 | 25 to 50 | 51 to 75
24 | Oc1nc(-c2ncccn2)nc2c(-c3cccc(C(F)(F)F)c3)csc12 [drawing 3608] | 25 to 50 | 25 to 50 | 51 to 75
25 | COCCNc1nc(-c2nccn2C)nc2sc(-c3cccc(OC)c3)c(-c3ccccc3)c12 [drawing 3586] | 25 to 50 | 1 to 25 | 25 to 50
26 | COCCCNc1nc(-c2nccn2C)nc2sc(-c3ccccc3)c(-c3ccccc3)c12 [drawing 3570] | 51 to 75 | 51 to 75 | 51 to 75
27 | COCCN(C)c1nc(-c2nccn2C)nc2sc(-c3ccccc3)c(-c3ccccc3)c12 [drawing 3566] | 51 to 75 | 25 to 50 | 51 to 75
28 | CCOCCNc1nc(-c2nccn2C)nc2sc(-c3ccccc3)c(-c3ccccc3)c12 [drawing 3575] | 51 to 75 | 51 to 75 | 51 to 75
29 | COCCNc1nc(-c2cccc(N)n2)nc2sc(-c3ccccc3)c(-c3ccccc3)c12 [drawing 3591] | 0 | 1 to 25 | 0
30 | Cn1ccnc1-c1nc(NCCCO)c2c(-c3ccccc3)c(-c3ccccc3)sc2n1 [drawing 3579] | 51 to 75 | 25 to 50 | 25 to 50
31 | COCCNc1nc(-c2cn(C)cn2)nc2sc(C)c(-c3ccccc3)c12 [drawing 3585] | 25 to 50 | 25 to 50 | 51 to 75
32 | Cn1ccnc1-c1nc(NCCOC(F)(F)F)c2c(-c3ccccc3)c(-c3ccccc3)sc2n1 [drawing 3568] | 25 to 50 | 1 to 25 | 25 to 50
33 | COCCNc1nc(-c2nccn2C)nc2sc(-c3ccncc3)c(-c3ccccc3)c12 [drawing 3582] | 51 to 75 | 51 to 75 | 76 to 100
34 | Cn1ccnc1-c1nc(NCCOC2CC2)c2c(-c3ccccc3)c(-c3ccccc3)sc2n1 [drawing 3576] | 1 to 25 | 25 to 50 | 25 to 50
35 | COCC(C)Nc1nc(-c2nccn2C)nc2sc(-c3ccccc3)c(-c3ccccc3)c12 (stereo not drawn) [drawing 3577] | 1 to 25 | 1 to 25 | 1 to 25
36 | Cn1cnc(-c2nc(O)c3scc(-c4cccc(OC(F)(F)F)c4)c3n2)c1 [drawing 3606] | 25 to 50 | 1 to 25 | 25 to 50
37 | COCCNc1nc(-c2nccn2C)nc2sc(C3CCOCC3)c(-c3ccccc3)c12 [drawing 3590] | 51 to 75 | 25 to 50 | 51 to 75
